Results taken from US20170000749A1, “Methods for Treating Cognitive Disorders Using Inhibitors of Histone Deacetylase” (Forum Pharmaceuticals, Inc., priority 2008, published 2017).
Read-outs that look alike come from different tables or passages of the source.

Columns and labels:
[1] = target: one or more of HDAC-1, HDAC-2, HDAC-3, HDAC-4, HDAC-5, HDAC-6, HDAC-7, HDAC-8, HDAC-9, HDAC-10 and HDAC-11; assay: Inhibition of Histone Deacetylase Enzymatic Activity (Boc-Lys(Ac)-AMC substrate, Fluor-de-Lys developer); assay type: biochemical; conditions: read-out: HDAC Inhibition (IC50 μM) HDAC Enzyme
Experimental: The following protocol is used to assay the compounds of the disclosure.
The mixture is pre-incubated for 5 minutes at room temperature. The reaction is started by bringing the temperature to 37° C. and adding 16 μl substrate. Total reaction volume is 50 μl.
In the Tables 8, 9 and 10, A≦0.05 μM; 0.05 μM<B≦0.1 μM; 0.1 μM<C≦1 μM; and 1 μM<D≦10 μM.

[2] = system: HDAC activity in primary mouse cortical cultures; assay: Whole-Cell Histone Deacetylase (HDAC) Inhibition Assay in Primary Mouse Cortical Cultures; assay type: cell-based
Method in brief: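 Primary neocortical neurons from E17 Balb/C mouse embryos were plated at 50000 cells/well and treated at DIV9 with ten-point DMSO dilutions for 16-18 h at 37° C, in triplicate. BOC-Lys(Ac)-AMC substrate was then added for 1 h. Fluor de Lys developer containing 1 uM TSA produced a fluorophore, which was read.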

[3] = whole-cell (WC), mouse cortical neurons, Table 8, read-out: HDAC Inhibition (IC50 μM) WC mouse cortical neurons
[4] = whole-cell (WC), mouse cortical neurons, Table 9, read-out: HDAC Inhibition (IC50 μM) WC mouse cortical neurons
[5] = whole-cell (WC), mouse cortical neurons, Table 10, read-out: HDAC Inhibition (IC50 μM) WC mouse cortical neurons

SMILES	IC50 ([1]; Table 8)	IC50 [2, 3]	IC50 ([1]; Table 10)	IC50 [2, 5]	other results
O=C(NO)c1ccc(C2=Nc3ccccc3Oc3ccccc32)o1 [(E)-5-(dibenzo[b,f][1,4]oxazepin-11-yl)-N-hydroxyfuran-2-carboxamide]	1 to 10 µM	> 15 µM	–	–	–
O=C(NO)c1ccc(N2C[C@@H]3C[C@H]2CN3c2cccc(C(F)(F)F)c2)cc1F [2-fluoro-N-hydroxy-4-((1S,4S)-5-(3-(trifluoromethyl)phenyl)-2,5-diazabicyclo[2.2.1]heptan-2-yl)benzamide]	–	–	–	–	IC50 ([1]; Table 9): 0.1 to 1 µM; IC50 [2, 4]: 5 to 15 µM
O=C(NO)c1ccc(C2=Nc3cc(Cl)ccc3Nc3ccccc32)cc1 [(Z)-4-(8-oro-5H-dibenzo[b,e][1,4]diazepin-11-yl)-N-hydroxybenzamide]	0.05 to 0.1 µM	1 to 5 µM	–	–	–
O=C(NO)c1cnc(N2CCn3c(nnc3C(F)(F)F)C2)nc1 [N-hydroxy-2-(3-(trifluoromethyl)-5,6-dihydro-[1,2,4]triazolo[4,3-a]pyrazin-7(8H)-yl)pyrimidine-5-carboxamide]	–	–	0.05 to 0.1 µM	1 to 5 µM	–
O=C(NO)c1ccc(ON=C2c3ccccc3CCc3ccccc32)cc1	–	–	0.1 to 1 µM	5 to 15 µM	–
O=C(NO)c1cnc(NC2c3ccccc3-c3ccccc32)nc1 [2-(9H-fluoren-9-ylamino)-N-hydroxypyrimidine-5-carboxamide]	–	–	0.1 to 1 µM	5 to 15 µM	–
O=C(CCCON=C1c2ccccc2CCc2ccccc21)NO	–	–	0.1 to 1 µM	5 to 15 µM	–
N#Cc1ccc2c(c1)Oc1ccccc1C(c1ccc(C(=O)NO)cc1)=N2 [(Z)-4-(7-cyanodibenzo[b,f][1,4]oxazepin-11-yl)-N-hydroxybenzamide]	< 0.05 µM	5 to 15 µM	–	–	–
O=C(CCCCCCN1C(=O)c2ccccc2Oc2ccccc21)NO [N-hydroxy-7-(11-oxodibenzo[b,f][1,4]oxazepin-10(11H)-yl)heptanamide]	–	–	< 0.05 µM	< 1 µM	–
O=C(NO)c1ccc(C2=Nc3ccccc3S(=O)(=O)c3ccccc32)cc1	1 to 10 µM	5 to 15 µM	–	–	–
Cc1cccc(N2C[C@H]3C[C@@H]2CN3c2ncc(C(=O)NO)cn2)c1 [N-hydroxy-2-((1R,4R)-5-m-tolyl-2,5-diazabicyclo[2.2.1]heptan-2-yl)pyrimidine-5-carboxamide]	–	–	–	–	IC50 ([1]; Table 9): 0.05 to 0.1 µM; IC50 [2, 4]: < 1 µM
O=C(NO)c1ccc(N2C[C@@H]3C[C@H]2CN3c2cc(C(F)(F)F)ccn2)cc1 [N-hydroxy-4-((1S,4S)-5-(4-(trifluoromethyl)pyridin-2-yl)-2,5-diazabicyclo[2.2.1]heptan-2-yl)benzamide]	–	–	–	–	IC50 ([1]; Table 9): 0.1 to 1 µM; IC50 [2, 4]: 1 to 5 µM
O=C(NO)c1ccc(C2=Nc3ccccc3Oc3c[n+]([O-])ccc32)cc1 [(Z)-5-(4-(hydroxycarbamoyl)phenyl)benzo[b]pyrido[4,3-f][1,4]oxazepine 2-oxide]	0.1 to 1 µM	5 to 15 µM	–	–	–
O=C(CCCCCCON=C1c2ccccc2CCc2ccccc21)NO	–	–	0.1 to 1 µM	1 to 5 µM	–
CN1C(=O)CN=C(c2ccccc2)c2ccc(CCC(=O)NO)cc21 [(Z)-N-hydroxy-3-(1-methyl-2-oxo-5-phenyl-2,3-dihydro-1H-benzo[e][1,4]diazepin-8-yl)propanamide]	–	–	0.1 to 1 µM	–	IC50 ([2]; read-out: HDAC Inhibition (IC50 μM) WC mouse cortical neurons, Table 10): 5 to 15 µM
O=C(NO)c1ccc(C2=Nc3ccsc3Oc3ccccc32)cc1 [(Z)-4-(benzo[f]thieno[2,3-b][1,4]oxazepin-5-yl)-N-hydroxybenzamide]	0.1 to 1 µM	1 to 5 µM	–	–	–
O=C(NO)c1ccc(OCCN2C(=O)c3ccccc3Oc3cc(Cl)ccc32)cc1	–	–	< 0.05 µM	1 to 5 µM	–
O=C(CCc1ccc(CN2C(=O)c3ccccc3Oc3ccccc32)cc1)NO [N-hydroxy-3-(4-((11-oxodibenzo[b,f][1,4]oxazepin-10(11H)-yl)methyl)phenyl)propanamide]	–	–	0.1 to 1 µM	1 to 5 µM	–
O=C(NO)c1cnc(NC2c3ccccc3C=Cc3ccccc32)nc1	–	–	< 0.05 µM	< 1 µM	–
O=C(Cc1ccc(CN2c3ccccc3C=Cc3ccccc32)cc1)NO [(Z)-2-(4-((5H-dibenzo[b,f]azepin-5-yl)methyl)phenyl)-N-hydroxyacetamide]	–	–	0.1 to 1 µM	5 to 15 µM	–
Cc1ccc(N2C[C@H]3C[C@@H]2CN3c2ncc(C(=O)NO)cn2)cc1 [N-hydroxy-2-((1R,4R)-5-p-tolyl-2,5-diazabicyclo[2.2.1]heptan-2-yl)pyrimidine-5-carboxamide]	–	–	–	–	IC50 ([1]; Table 9): < 0.05 µM; IC50 [2, 4]: < 1 µM

SMILES	IC50 ([1]; Table 8)	IC50 [2, 3]	IC50 ([1]; Table 10)	IC50 [2, 5]	other results
O=C(NO)c1cnc(N2C[C@H]3C[C@@H]2CN3c2cc(C(F)(F)F)ccn2)nc1 [N-hydroxy-2-((1R,4R)-5-(4-(trifluoromethyl)pyridin-2-yl)-2,5-diazabicyclo[2.2.1]heptan-2-yl)pyrimidine-5-carboxamide]	–	–	–	–	IC50 ([1]; Table 9): < 0.05 µM; IC50 [2, 4]: < 1 µM
O=C(NO)c1ccc(C2=Nc3ccccc3Oc3cnccc32)cc1 [(Z)-4-(benzo[b]pyrido[4,3-f][1,4]oxazepin-5-yl)-N-hydroxybenzamide]	0.1 to 1 µM	< 1 µM	–	–	–
O=C(CCCCCCC(=O)NC1c2ccccc2C=Cc2ccccc21)NO	–	–	0.1 to 1 µM	1 to 5 µM	–
O=C(NO)c1ccc(C2=Nc3ccccc3Oc3c2cccc3C(F)(F)F)cc1 [(Z)—N-hydroxy-4-(4-(trifluoromethyl)dibenzo[b,f][1,4]oxazepin-11-yl)benzamide]	< 0.05 µM	> 15 µM	–	–	–
Cc1ccc(N2C[C@@H]3C[C@H]2CN3c2ccc(C(=O)NO)cc2)cc1 [N-hydroxy-4-((1S,4S)-5-p-tolyl-2,5-diazabicyclo[2.2.1]heptan-2-yl)benzamide]	–	–	–	–	IC50 ([1]; Table 9): 0.1 to 1 µM; IC50 [2, 4]: 1 to 5 µM
O=C(NO)c1ccc(C2=Nc3ccccc3Nc3ccccc32)cc1 [(Z)-4-(5H-dibenzo[b,e][1,4]diazepin-11-yl)-N-hydroxybenzamide]	0.1 to 1 µM	1 to 5 µM	–	–	–
O=C(NO)c1ccc(CCNC2=Nc3ccccc3Oc3ccccc32)cc1 [(E)-4-(2-(dibenzo[b,f][1,4]oxazepin-11-ylamino)ethyl)-N-hydroxybenzamide]	0.1 to 1 µM	5 to 15 µM	–	–	–
O=C(NO)c1ccc(C2=Nc3ccccc3Cn3cccc32)cc1 [(Z)-4-(5H-benzo[e]pyrrolo[1,2-a][1,4]diazepin-11-yl)-N-hydroxybenzamide]	< 0.05 µM	1 to 5 µM	–	–	–
O=C(NO)c1ccc(C2=Nc3ccccc3N(C3CC3)c3ccccc32)cc1 [(Z)-4-(5-cyclopropyl-5H-dibenzo[b,e][1,4]diazepin-11-yl)-N-hydroxybenzamide]	0.1 to 1 µM	1 to 5 µM	–	–	–
O=C(NO)c1cnc(N2C[C@@H]3C[C@H]2CN3C(=O)OC2CCCC2)nc1 [(1S,4S)-cyclopentyl 5-(5-(hydroxycarbamoyl)pyrimidin-2-yl)-2,5-diazabicyclo[2.2.1]heptane-2-carboxylate]	–	–	–	–	IC50 ([1]; Table 9): < 0.05 µM; IC50 [2, 4]: < 1 µM
O=C(NO)c1ccc(C2=Nc3c(F)cccc3Oc3ccccc32)cc1 [(Z)-4-(9-fluorodibenzo[b,f][1,4]oxazepin-11-yl)-N-hydroxybenzamide]	0.05 to 0.1 µM	1 to 5 µM	–	–	–
O=C(NO)c1cccc(OCCN2C(=O)c3ccccc3Oc3ccccc32)c1	–	–	0.1 to 1 µM	> 15 µM	–
O=C(NO)c1cnc(N2C[C@@H]3C[C@H]2CN3c2ccc3nsnc3c2)nc1 [2-((1S,4S)-5-(benzo[c][1,2,5]thiadiazol-5-yl)-2,5-diazabicyclo[2.2.1]heptan-2-yl)-N-hydroxypyrimidine-5-carboxamide]	–	–	–	–	IC50 ([1]; Table 9): < 0.05 µM; IC50 [2, 4]: < 1 µM
COc1cc(F)cc2c1Oc1ccccc1N=C2c1ccc(C(=O)NO)cc1 [(Z)-4-(2-fluoro-4-methoxydibenzo[b,f][1,4]oxazepin-11-yl)-N-hydroxybenzamide]	< 0.05 µM	1 to 5 µM	–	–	–
O=C(NO)c1cnc(N2C[C@@H]3C[C@H]2CN3c2cccc(C(F)(F)F)c2)nc1 [N-hydroxy-2-((1S,4S)-5-(3-(trifluoromethyl)phenyl)-2,5-diazabicyclo[2.2.1]heptan-2-yl)pyrimidine-5-carboxamide]	–	–	–	–	IC50 ([1]; Table 9): < 0.05 µM; IC50 [2, 4]: < 1 µM
COc1cccc(N2C[C@@H]3C[C@H]2CN3c2ncc(C(=O)NO)cn2)c1 [N-hydroxy-2-((1S,4S)-5-(3-methoxyphenyl)-2,5-diazabicyclo[2.2.1]heptan-2-yl)pyrimidine-5-carboxamide]	–	–	–	–	IC50 ([1]; Table 9): < 0.05 µM; IC50 [2, 4]: < 1 µM
O=C(CCCCCON=C1c2ccccc2CCc2ccccc21)NO	–	–	0.1 to 1 µM	5 to 15 µM	–
O=C(NO)c1cnc(N2C[C@@H]3C[C@H]2CN3c2cccc(SC(F)(F)F)c2)nc1 [N-hydroxy-2-((1S,4S)-5-(3-(trifluoromethylthio)phenyl)-2,5-diazabicyclo[2.2.1]heptan-2-yl)pyrimidine-5-carboxamide]	–	–	–	–	IC50 ([1]; Table 9): < 0.05 µM; IC50 [2, 4]: 1 to 5 µM
O=C(NO)c1ccc(CON=C2c3ccccc3CCc3ccccc32)cc1	–	–	0.1 to 1 µM	5 to 15 µM	–
COc1ccc2c(c1)C(c1ccc(C(=O)NO)cc1)=Nc1ccccc1O2 [(Z)—N-hydroxy-4-(2-methoxydibenzo[b,f][1,4]oxazepin-11-yl)benzamide]	0.1 to 1 µM	5 to 15 µM	–	–	–
O=C(/C=C/c1ccc2c(c1)C=Cc1ccccc1N2CC1CC1)NO [(E)-3-((Z)-5-(cyclopropylmethyl)-5H-dibenzo[b,f]azepin-2-yl)-N-hydroxyacrylamide]	–	–	0.1 to 1 µM	5 to 15 µM	–
